Source: PMC2850272 (Bioorganic & medicinal chemistry, 2010)

Conditions: pH 7.4

Substance	Permeability (PAMPA)
2-(Benzo[d][1,3]dioxol-5-yl)-4-chloro-3-(ethoxymethyl)-7-methoxyquinoline [28a]	802±370 10^−6 cm/s
2-(Benzo[d][1,3]dioxol-5-yl)-3-(ethoxymethyl)-5-methoxyquinoline [30b]	2796±1746 10^−6 cm/s
Ethyl 2-(benzo[d][1,3]dioxol-5-yl)-7-methoxy-4-(methylamino)quinoline-3-carboxylate [25a]	2013±179 10^−6 cm/s
Ethyl 2-(benzo[d][1,3]dioxol-5-yl)-5-methoxy-4-(methylamino)quinoline-3-carboxylate [25b]	1240±154 10^−6 cm/s
